IC50 and Kd data for 45 compounds are collected here from patent US6284768A, “Src family SH2 domain inhibitors” (Boehringer Ingelheim Pharmaceuticals, Inc., priority 1999, dated 2001).

SMILES strings stand for the structures.

T1 sequence (P06239 127-224 limits assumed): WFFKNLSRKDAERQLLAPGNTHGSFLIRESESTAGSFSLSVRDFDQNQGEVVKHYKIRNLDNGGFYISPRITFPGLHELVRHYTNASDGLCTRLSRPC

The first assay concerns Inter-leukin 2 (IL-2) production by activated Human Primary T Lymphocytes. As to the kind of experiment: Primary T cell assay: inhibition of IL-2 production by activated human primary CD4 positive T lymphocytes. In kind it is cell-based. The following applies: Homo sapiens, CD4 positive, Table 5; mean IC50 value; CD4 positive T cells activated with anti-CD3/anti-CD28, IL-2 by ELISA; read-out: IC50 (blocking IL-2 production). On the procedure: Summary of Primary T Cell Assay.
Inhibitors of the lck SH2 domain were assayed for their ability to block Inter-leukin 2 (IL-2) production by activated Human Primary T Lymphocytes. Peripheral blood mononuclear cells were isolated from whole blood by centrifugation in ficoll-Pague partitioning medium. CD4 positive cells were purified using negative selection. […] The compounds, at the appropriate dilutions, were added, and the cells were incubated for 60 minutes at 37° C. The CD4 positive T cells were then activated by the addition of anti-CD3 (60 ng/mL), anti CD28 (500 ng/mL) and goat anti mouse IgG coated beads, and incubated overnight at 37° C. The cells were pelleted, and the supernatents assayed for IL-2 by ELISA.
As SH2 domain containing proteins are intracellular, any therapeutic agent must be able to cross biological membranes. […] These characteristics may be quantified by observing inhibition in IL-2 production in human blood CD4 positive T-lymphocytes after T cell receptor and CD28 cross-linking.
On to `CCc1cn(Cc2ccc(OC)cc2)c(=O)c(NC(=O)C(Cc2ccc(C(C)(C)C(=O)O)cc2)NC(=O)Cc2ccc3ccccc3c2)c1C` (stereo not shown) [Compound 222], for which the 50% inhibitory concentration (IC50) stood at 69 µM.

The assay is the same for the next values; noted with them: Homo sapiens; Table 5; mean IC50 value; CD4 positive T cells activated with anti-CD3/anti-CD28, IL-2 by ELISA; read-out: IC50 (blocking IL-2 production).
`COc1ccc(Cn2ccc(C)c(NC(=O)[C@H](Cc3ccc(C(C)(C)C(=O)O)cc3)NC(=O)C(C)(C)c3ccc4ccccc4c3)c2=O)cc1` [Compound 107]: the IC50 amounted to 48 µM.

A further assay has as its target T1, p56lck GST-SH2 (lck SH2 domain) (Homo sapiens, UniProt P06239).
T1 construct: GST (N)
The assay is described as follows: Receptor-ligand equilibrium binding constants by surface plasmon resonance (biosensor), lck SH2 domain. Conditions: Table 1, compounds of formula (II).
In turn, `CCc1cn(Cc2ccc(OC)cc2)c(=O)c(NC(=O)C(Cc2ccc(C(C)(C)C(=O)O)cc2)NC(=O)Cc2ccc3ccccc3c2)c1C` (stereo not shown) [Compound 222] had an equilibrium dissociation constant (Kd) of 1.2 µM.
`COc1ccc(Cn2ccc(C)c(NC(=O)[C@H](Cc3ccc(CC(=O)O)cc3)NC(=O)C3(c4ccccc4)CC3)c2=O)cc1` [Compound 77]: binding was put at a Kd of 20 µM.
The compound `Cc1ccn(C/C=C/c2ccccc2)c(=O)c1NC(=O)C(Cc1ccc(C(C)(C)C(=O)O)cc1)NC(=O)Cc1ccc2ccccc2c1` (racemic) [Compound 115] returned a Kd of 1.2 µM.
`COc1c(F)c(F)c(Cn2ccc(C)c(NC(=O)C(Cc3ccc(C(C)(C)C(=O)O)cc3)NC(=O)Cc3ccc4ccccc4c3)c2=O)c(F)c1F` (stereo not shown) [Compound 153] gave a Kd of 2.1 µM. Against the preceding compound, the Kd is about 1.8-fold higher.
The same measure, in the same setting: in the case of `COCCOCn1ccc(C)c(NC(=O)C(Cc2ccc(C(C)(C)C(=O)O)cc2)NC(=O)Cc2cccc3ccccc23)c1=O` (stereo not shown) [Compound 188] it was 45 µM; in that of `CCc1ccn(Cc2ccc(OC)cc2)c(=O)c1NC(=O)[C@H](Cc1ccc(CC(=O)O)cc1)NC(=O)Cc1cccc2ccccc12` [Compound 92, 3-[2'-(S)-(1'"-Naphthylacetyl)amino-3'-(4"-carboxymethyl)benzene]propanoylamino-1-(4-methoxy)benzyl-4-ethyl-2-pyridone], 3.8 µM.
The same measure, in the same setting: under `COc1ccc(Cn2ccc(C)c(NC(=O)[C@H](Cc3ccc(CC(=O)O)cc3)NC(=O)C(C)(C)C)c2=O)cc1` [Compound 63] stands 12 µM; under `COc1ccc(Cn2ccc(C)c(NC(=O)[C@H](Cc3ccc(C(CO)C(=O)O)cc3)NC(=O)Cc3cccc4ccccc34)c2=O)cc1` (stereo partly drawn) [Compound 136, 3-[2'-(S)-(1'"-Naphthylacetyl)amino-3'-[4"-(1'"-(R,S)-carboxy-2'"-hydroxy)ethyl]benzene]propanoylamino-1-(4-methoxybenzyl)-4-methyl-2-pyridone], 5.6 µM; under `COc1ccc(Cn2ccc(C)c(NC(=O)[C@H](Cc3ccc(NC(=O)C(=O)O)cc3)NC(=O)Cc3ccc(NCC(C)(C)C)cc3)c2=O)cc1` [Compound 48], 0.5 µM.
On the same count and under the same terms, in the case of `COc1ccc(Cn2ccc(C)c(NC(=O)[C@H](Cc3ccc(NC(=O)C(=O)O)cc3)NC(=O)Cc3ccc4ccccc4c3)c2=O)cc1` [Compound 32] it was 0.35 µM.
On to `COc1ccc(Cn2ccc(C)c(NC(=O)C(Cc3ccc(C(C)(C)C(=O)O)cc3)NC(=O)C(C)C)c2=O)cc1` (stereo not shown) [Compound 170], for which the Kd was 3.9 µM.
Same read-out and setting: under `COc1ccc(Cn2ccc(C)c(NC(=O)C(Cc3ccc(C(C)(C)C(=O)O)cc3)NC(=O)Cc3ccc4ccccc4c3)c2=O)cc1O` (stereo not shown) [Compound 160] stands 5.8 µM; under `COc1ccc(Cn2cc(I)c(C)c(NC(=O)C(Cc3ccc(C(C)(C)C(=O)O)cc3)NC(=O)Cc3ccc4ccccc4c3)c2=O)cc1` (racemic) [Compound 229, 3-[2'-(R,S)-(2""-Naphthylacetyl)amino-3'4"-(1'"-carboxy-1'"-methyl)ethyl]benzene]propanoylamino-5-iodo-1-(4-methoxybenzyl)-4-methyl-2-pyridone], 0.14 µM; under `COc1ccc(Cn2ccc(C)c(NC(=O)[C@H](Cc3ccc(NC(=O)C(=O)O)cc3)NC(=O)Cc3ccc(Br)cc3)c2=O)cc1` [Compound 36], 1.5 µM.
On the same count and under the same terms, in the case of `COc1ccc(Cn2ccc(C)c(NC(=O)[C@H](Cc3ccc(CC(=O)O)cc3)NC(=O)Cc3ccc(C(C)(C)C)cc3)c2=O)cc1` [Compound 162] it was 1 µM.
The same measure, in the same setting: under `COc1ccc(Cn2ccc(C)c(NC(=O)[C@H](Cc3ccc(NC(=O)C(=O)O)cc3)NC(=O)Cc3csc(N)n3)c2=O)cc1` [Compound 10] stands 6.7 µM; under `COc1ccc(Cn2c(C)cc(C)c(NC(=O)[C@H](Cc3ccc(CC(=O)O)cc3)NC(=O)Cc3cccc4ccccc34)c2=O)cc1` [Compound 91], 4.8 µM; under `COCCCCn1ccc(C)c(NC(=O)C(Cc2ccc(C(C)(C)C(=O)O)cc2)NC(=O)Cc2ccc3ccccc3c2)c1=O` (stereo not shown) [Compound 237], 3.1 µM.
`COc1ccc(Cn2ccc(CCO)c(NC(=O)C(Cc3ccc(C(C)(C)C(=O)O)cc3)NC(=O)C(C)(C)c3ccc4ccccc4c3)c2=O)cc1` (stereo not shown) [Compound 223]: binding was characterised by a dissociation constant (Kd) of 2.4 µM. This Kd and that of the compound before are within 1.5-fold of each other.
On the same count and under the same terms, in the case of `COc1ccc(Cn2ccc(C)c(NC(=O)[C@H](Cc3ccc(C(C)C(=O)O)cc3)NC(=O)Cc3cccc4ccccc34)c2=O)cc1` (stereo partly shown) [Compound 3] it was 5.1 µM; in that of `CCCCCCn1ccc(C)c(NC(=O)C(Cc2ccc(C(C)(C)C(=O)O)cc2)NC(=O)Cc2cccs2)c1=O` (stereo not shown) [Compound 206], 0.89 µM; in that of `COc1ccc(Cn2ccc(C)c(NC(=O)[C@H](Cc3ccc(C(F)(F)P(=O)(O)O)cc3)NC(C)=O)c2=O)cc1` [Compound 65], 1.3 µM.
`COc1ccc(Cn2ccc(C)c(NC(=O)[C@H](Cc3ccc(CC(=O)O)cc3)NC(=O)C3(c4ccccc4)CCOCC3)c2=O)cc1` [Compound 80] displayed a Kd of 20 µM.
Compound `COc1ccc(Cn2ccc(C)c(NC(=O)[C@H](Cc3ccc(NC(=O)C(=O)O)cc3)NC(=O)CNC(=O)c3ccccc3C(=O)O)c2=O)cc1` [Compound 31] yielded a Kd of 0.68 µM.
Turning to `COc1ccc(Cn2ccc(C)c(NC(=O)[C@H](Cc3ccc(CS(=O)(=O)O)cc3)NC(=O)Cc3cccc4ccccc34)c2=O)cc1` [Compound 42, 3-[2'-(S)-(1'"-Naphthylacetyl)amino-3'-(4"-sulfonylmethyl)benzene]propanoylamino-1-(4-methoxybenzyl)-4-methyl-2-pyridone], binding was put at a Kd of 1.5 µM.
On the same count and under the same terms, under `Cc1ccn(Cc2ccccc2)c(=O)c1NC(=O)C(Cc1ccc(C(C)(C)C(=O)O)cc1)NC(=O)Cc1cccc2ccccc12` (stereo not shown) [Compound 197] stands 9 µM.
Still for that read-out and setting: in the case of `COc1ccc(Cn2ccc(C)c(NC(=O)[C@H](Cc3ccc(CC(=O)O)cc3)NC(=O)C(C)C)c2=O)cc1` [Compound 75] it was 6.7 µM.
Still for that read-out and setting: in the case of `Cc1ccn(Cc2ccc(C(C)C)cc2)c(=O)c1NC(=O)[C@H](Cc1ccc(CC(=O)O)cc1)NC(=O)Cc1cccc2ccccc12` [Compound 54] it was over 500 µM.
`COc1ccc(Cn2ccc(C)c(NC(=O)[C@H](Cc3ccc(CC(=O)O)cc3)NC(=O)Cc3ccc(Oc4ccccc4)cc3)c2=O)cc1` [Compound 71] yielded a Kd of 14 µM.
The same measure, in the same setting: in the case of `COc1ccc(Cn2ccc(C)c(NC(=O)[C@H](Cc3ccc(C(C)(C)C(=O)O)cc3)NC(=O)[C@H](C)c3cccc4ccccc34)c2=O)cc1` [Compound 44] it was 1.5 µM; in that of `COc1ccc(Cn2ccc(C)c(NC(=O)[C@H](Cc3ccc(CC(=O)O)cc3)NC(=O)COc3nccc4ccccc34)c2=O)cc1` [Compound 85], 2.6 µM.
On to `COc1ccc(Cn2ccc(C)c(NC(=O)[C@H](Cc3ccc(C(C)(C)C(=O)O)cc3)NC(=O)Cc3ccc(N(C)C)cc3)c2=O)cc1` [Compound 99], for which the Kd worked out at 0.13 µM. Against the preceding compound, the Kd is about 20-fold lower.
The same measure, in the same setting: under `Cc1ccn(Cc2ccc(OC(C)C)cc2)c(=O)c1NC(=O)[C@H](Cc1ccc(CC(=O)O)cc1)NC(=O)Cc1cccc2ccccc12` [Compound 51] stands over 69 µM.
Still for that read-out and setting: under `COC1CCC(Cn2ccc(C)c(NC(=O)C(Cc3ccc(C(C)(C)C(=O)O)cc3)NC(=O)Cc3ccc(C(F)(F)F)cc3)c2=O)CC1` (stereo not shown) [Compound 148] stands 3.6 µM; under `Cc1ccn(Cc2ccc(Cl)cc2)c(=O)c1NC(=O)[C@H](Cc1ccc(CC(=O)O)cc1)NC(=O)Cc1cccc2ccccc12` [Compound 55], 15 µM.
Same read-out and setting: under `COc1ccc(C(C)n2ccc(C)c(NC(=O)[C@H](Cc3ccc(CC(=O)O)cc3)NC(=O)C(C)(C)C)c2=O)cc1` (stereo partly shown) [Compound 82] stands 32 µM; under `COc1ccc(Cn2ccc(C)c(NC(=O)[C@H](Cc3ccc(NC(=O)C(=O)O)cc3)NC(=O)Cc3ccc(C(C)C)cc3)c2=O)cc1` [Compound 43], 1.9 µM; under `Cc1ccn(Cc2ccc(C(C)C)cc2)c(=O)c1NC(=O)[C@H](Cc1ccc(C(C)(C)C(=O)O)cc1)NC(=O)Cc1c[nH]c2ccccc12` [Compound 100], 1.5 µM.
For `COc1cc(Cn2ccc(C)c(NC(=O)C(Cc3ccc(C(C)(C)C(=O)O)cc3)NC(=O)Cc3ccc4ccccc4c3)c2=O)cc(OC)c1OC` (stereo not shown) [Compound 157], binding was characterised by a dissociation constant (Kd) of 21 µM. This Kd lies about 14-fold higher than the previous one.
On the same count and under the same terms, under `COc1ccc(Cn2ccc(C)c(NC(=O)[C@H](Cc3ccc(NC(=O)C(=O)O)cc3)NC(=O)Cc3cccc(N(C)C)c3)c2=O)cc1` [Compound 49] stands 2.1 µM.
On the same count and under the same terms, under `COc1ccc(Cn2ccc(C)c(NC(=O)[C@H](Cc3ccc(C(C)(C)C(=O)O)cc3)NC(=O)Cc3c[nH]c4ccccc34)c2=O)cc1` [Compound 98] stands 0.43 µM; under `Cc1ccn(Cc2ccccc2)c(=O)c1NC(=O)[C@H](Cc1ccc(CC(=O)O)cc1)NC(=O)Cc1cccc2ccccc12` [Compound 18], 17.7 µM.
The compound `Cc1ccn(Cc2ccoc2)c(=O)c1NC(=O)C(Cc1ccc(C(C)(C)C(=O)O)cc1)NC(=O)Cc1cccc2ccccc12` (stereo not shown) [Compound 201] gave a Kd of 6.7 µM.

Staying with this assay, now noted: Table 2, compounds of formula (III).
On to `COc1ccc(Cn2ncc(C)c(NC(=O)C(Cc3ccc(C(C)(C)C(=O)O)cc3)NC(=O)Cc3ccccc3)c2=O)cc1` (stereo not shown) [Compound 245], for which the Kd turned out to be 23 µM.
